The conditions of the series: 100 kPa, Liquid, Pycnometric method.

Data on one compound can be found in the NIST ThermoML archive (doi:10.1021/acs.jced.8b00936).

Numbers after ± are expanded uncertainties.

`CCCCOCCOCCCC` [5,8-dioxadodecane]: the mass density – broadly, the mass of a sample divided by its volume – (273.15 K) was 859.9 ± 4.9 kg/m3 and the mass density (283.15 K) is given as 849.3 ± 4.8 kg/m3.
